According to US5053418A, “Antiprotozoal agents” (Burroughs Wellcome Co., priority 1983, dated 1991):

Columns and labels:
[1] = test system: P.falciparum; experiment: In vitro activity against P.falciparum: inhibition of 3H-adenosine/3H-hypoxanthine incorporation (modified Desjardins); format: cell-based; settings: for ED50 for Clopidol (4-pyridinol) / ED50 for naphthoquinone: 2580 min; for inhibition at 6.25 pg/mL: 0.00000625 mg/L; for inhibition at 12.5 pg/mL: 0.0000125 mg/L; for inhibition at 0.625 µg/mL: 0.625 mg/L; for inhibition at 1.25 µg/mL: 1.25 mg/L
Experimental: Each of the two compounds to be tested were dissolved in ethanol at a concentration of 10 mg/L and serially diluted with RPMI 1640 medium and 10% (v/v) human plasma in microtitration plates. P.falciparum-parasitised and fresh blood cells were added together with ^3 H-adenosine or ^3 H-hypoxanthinein RPMI 1640 medium and 10% human plasma. The cultures were then incubated at 37° C. for 43 hours, harvested and the particulate contents collected on glass fibre filter papers which were washed copiously with water using a Cooke Microtiter System (Dynatech Labs. Europe); the filter papers were dried and the radioactivity measured using a scintillation counter. Infected, untreated and uninfected cultures were included as controls. Percent inhibition was correlated with dose to provide an IC50 for each drug alone.
For subsequent combination experiments the individual drug solutions and mixtures thereof were serially diluted.
By the method of Example 1 the effect of a number of naphthoquinone/clopidol (4-pyridinol) combinations on P.falciparum in vitro were determined.

[2] = test system: P.yoelii; experiment: In vivo effect on P.yoelii in mice (inhibition of parasitaemia)
Experimental: The naphthoquinone and the pyridinol were each suspended in 0.25% (w/v) celacol in water by milling for 16-24 hours at 26° C. The suspensions were subsequently serially diluted with 0.25% (w/v) celacol in water. At time 0, 0.1 ml of a suspension of 10^7 P.yoelii-parasitised red blood cells/ml of phosphate buffered saline were injected intravenously into 15-20 g mice through a tail vein. Groups of 5 mice per treatment were dosed orally at times 6, 22, 30, 46, 54, 70 and 78 hours with 0.2 ml of the drug suspension. Tail-blood smears were taken at 96 hours, stained with Giemsa and the percentage of red blood cells infected determined and compared to untreated, infected controls. Percent inhibition was correlated with dose to provide ED50 values for each drug alone. In subsequent experiments dilutions of the two drugs, alone and in combination were used, and the percentage inhibition of parasitaemia and ED50 values (of each drug at fixed concentrations of the other) were determined. The results are shown respectively in Tables V and VI. A number of combinations of clopidol (4-pyridinol) and naphthoquinones were assayed and compared with each drug alone for their antimalarial effect against P.yoelii in vivo by the method of Example 4.

[3] = in vivo; settings: rat, acute oral, rats
Experimental: The acute oral LD50 's of compounds of formula (I) in rats were determined by standard techniques.

[4] = Plasmodium falciparum, naphthoquinone alone
[5] = Plasmodium falciparum, 4-pyridinol analogue alone

For `CC(=O)OC1=C(C2CCC(C)(C)CC2)C(=O)c2ccccc2C1=O`, the inhibition at 0.00075 µg/mL ([1]; Plasmodium falciparum, naphthoquinone alone, 0.000750 mg/L) was 0% and the inhibition at 0.0015 µg/mL ([1]; Plasmodium falciparum, naphthoquinone alone, 0.00150 mg/L) was 0%.
With `Cc1nc(C)c(Cl)c(O)c1Cl` [Clopidol, 3,5-dichloro-2,6-dimethyl-4-pyridinol, reference compound] the inhibition in vivo at 1.9 mg/kg ([2]; Plasmodium yoelii, po, 96 h, clopidol alone, 1.9 mg/Kg/dose, 7 doses) was 6%, the inhibition in vivo at 2.5 mg/kg ([2]; Plasmodium yoelii, po, 96 h, clopidol alone, 2.5 mg/Kg × 7) was 0% and the inhibition in vivo at 3.7 mg/kg ([2]; Plasmodium yoelii, po, 96 h, clopidol alone, 3.7 mg/Kg/dose, 7 doses) was 17%. It also gave an inhibition in vivo at 7.5 mg/kg ([2]; Plasmodium yoelii, po, 96 h, clopidol alone, 7.5 mg/Kg/dose, 7 doses) of 13%, an inhibition in vivo at 13 mg/kg ([2]; Plasmodium yoelii, po, 96 h, clopidol alone, 13 mg/Kg × 7) of 5% and an inhibition in vivo at 15 mg/kg ([2]; Plasmodium yoelii, po, 96 h, clopidol alone, 15 mg/Kg/dose, 7 doses) of 34%. For the same molecule, the inhibition in vivo at 30 mg/kg ([2]; Plasmodium yoelii, po, 96 h, clopidol alone, 30 mg/Kg/dose, 7 doses) was 61%, the “ED50 for Clopidol (4-pyridinol)” value ([2]; fixed naphthoquinone 0.000 (alone)) was 22.5 (27.6 to 19.4) mg/Kg/dose and the “ED50 for Clopidol (4-pyridinol)” value ([2]; fixed naphthoquinone 0.019) was 13.8 (21.5 to 10.7) mg/Kg/dose. For the same molecule, the “ED50 for Clopidol (4-pyridinol)” value ([2]; fixed naphthoquinone 0.0375) was 5.14 (6.22 to 4.23) mg/Kg/dose, the “ED50 for Clopidol (4-pyridinol)” value ([2]; fixed naphthoquinone 0.075) was 1.87 (2.45 to 1.30) mg/Kg/dose and the “ED50 for Clopidol (4-pyridinol)” value ([2]; fixed naphthoquinone 0.15) was 0.522 (0.946 to 0.0356) mg/Kg/dose. The inhibition at 0.8 µg/mL ([1]; Plasmodium falciparum, 4-pyridinol alone, 0.80 mg/L) was 44%, the inhibition at 1.6 µg/mL ([1]; Plasmodium falciparum, 4-pyridinol alone, 1.6 mg/L) was 55% and the inhibition at 3.2 µg/mL ([1]; Plasmodium falciparum, 4-pyridinol alone, 3.2 mg/L) was 74%. The “% inhibition” value ([1]; clopidol (4-pyridinol) alone, 0.10 mg/L, listed as 4-pyridinol) was 24%, the “% inhibition” value ([1]; clopidol (4-pyridinol) alone, 0.20 mg/L, listed as 4-pyridinol) was 18% and the “% inhibition” value ([1]; clopidol (4-pyridinol) alone, 0.40 mg/L, listed as 4-pyridinol) was 22%. For the same molecule, the “ED50 for Clopidol (4-pyridinol)” value ([1]; fixed naphthoquinone 0.0 mg/L (alone)) was 1.18 (1.44 to 0.980) mg/L, the “ED50 for Clopidol (4-pyridinol)” value ([1]; fixed naphthoquinone 0.00781 mg/L) was 1.63 mg/L and the “ED50 for Clopidol (4-pyridinol)” value ([1]; fixed naphthoquinone 0.0156 mg/L) was 0.128 mg/L. For the same molecule, the “ED50 for Clopidol (4-pyridinol)” value ([1]; fixed naphthoquinone 0.0313 mg/L) was 2.57 mg/L, the “ED50 for Clopidol (4-pyridinol)” value ([1]; fixed naphthoquinone 0.0625 mg/L) was 1.03 (14.2 to 0.405) mg/L and the “ED50 for Clopidol (4-pyridinol)” value ([1]; fixed naphthoquinone 0.125 mg/L) was 0.578 mg/L. The “ED50 for Clopidol (4-pyridinol)” value ([1]; fixed naphthoquinone 0.250 mg/L) was 0.074 mg/L, the “ED50 for Clopidol (4-pyridinol)” value ([1]; fixed naphthoquinone 0.500 mg/L) was 0.052 mg/L and the “ED50 for Clopidol (4-pyridinol)” value ([1]; fixed naphthoquinone 1.00 mg/L) was 0.0092 mg/L. For the same molecule, the “ED50 for Clopidol (4-pyridinol)” value ([1]; fixed naphthoquinone 2.00 mg/L) was 0.00097 mg/L and the “ED50 for Clopidol (4-pyridinol)” value ([1]; fixed naphthoquinone 4.00 mg/L) was 0.00012 mg/L.
Molecule `CC(C)(C)C1CCC(C2=C(O)C(=O)c3ccccc3C2=O)CC1` (stereo not drawn) [drawing 10] has an inhibition at 6.25 pg/mL [1, 4] of 17% and an inhibition at 12.5 pg/mL [1, 4] of 13%.
For `Cc1ccc(C2CCC(C3=C(O)C(=O)c4ccccc4C3=O)CC2)cc1C` (stereo not drawn), the inhibition at 0.000125 µg/mL ([1]; Plasmodium falciparum, naphthoquinone alone, 0.000125 mg/L) was 15% and the inhibition at 0.00025 µg/mL ([1]; Plasmodium falciparum, naphthoquinone alone, 0.00025 mg/L) was 30%.
Molecule `O=C1C(O)=C(C2CCCC2)C(=O)c2ccccc21` has an inhibition at 0.625 µg/mL [1, 4] of 0% and an inhibition at 1.25 µg/mL [1, 4] of 2%.
In the case of `CC(C)(C)C1CCC(C2=C(Cl)C(=O)c3ccccc3C2=O)CC1` (stereo not drawn) [drawing 6, 2-(4-t-butylcyclohexyl)-3-chloro-1,4-naphthoquinone], the “% inhibition” value ([1]; naphthoquinone alone, 0.125 mg/L) is reported as 14% and the “% inhibition” value ([1]; naphthoquinone alone, 0.25 mg/L) is reported as 17%.
With `CC(C)(C)C1CCCC(C2=C(O)C(=O)c3ccccc3C2=O)C1` (stereo not drawn) the inhibition at 0.05 µg/mL ([1]; Plasmodium falciparum, naphthoquinone alone, 0.0500 mg/L) was 8% and the inhibition at 0.1 µg/mL ([1]; Plasmodium falciparum, naphthoquinone alone, 0.100 mg/L) was 24%.
With `Cc1nc(C)c(Br)c(O)c1Br` [X = Br, R^3 = Me, 3,5-dibromo-2,6-dimethyl-4-pyridinol] the inhibition at 0.125 µg/mL ([1]; Plasmodium falciparum, 4-pyridinol analogue alone, 0.125 mg/L) was 2% and the inhibition at 0.25 µg/mL ([1]; Plasmodium falciparum, 4-pyridinol analogue alone, 0.25 mg/L) was 14%.
For `CCC(C)(C)C1CCC(C2=C(O)C(=O)c3ccccc3C2=O)CC1` (stereo not drawn), the inhibition at 6.25 pg/mL [1, 4] was 31% and the inhibition at 12.5 pg/mL [1, 4] was 51%.
`CCCc1nc(CCC)c(Cl)c(O)c1Cl` [X = Cl, R^3 = Pr, 3,5-dichloro-2,6-dipropyl-4-pyridinol] gave an inhibition at 0.625 µg/mL [1, 5] of 12% and an inhibition at 1.25 µg/mL [1, 5] of 24%.
In the case of `CCCc1nc(CCC)c(Br)c(O)c1Br` [X = Br, R^3 = Pr, 3,5-dibromo-2,6-dipropyl-4-pyridinol], the inhibition at 3.125 µg/mL ([1]; Plasmodium falciparum, 4-pyridinol analogue alone, 3.125 mg/L) is reported as 9% and the inhibition at 6.25 µg/mL ([1]; Plasmodium falciparum, 4-pyridinol analogue alone, 6.25 mg/L) is reported as 15%.
Molecule `CC(C)(C)C1CCC(C2=C(Cl)C(=O)c3ccccc3C2=O)CC1` (stereo not drawn) [2-(4-t-butylcyclohexyl)-3-chloro-1,4-naphthoquinone] [listing 1 of 2 here] has an inhibition at 0.0625 µg/mL ([1]; Plasmodium falciparum, naphthoquinone alone, 0.0625 mg/L) of 18%, an inhibition at 0.125 µg/mL ([1]; Plasmodium falciparum, naphthoquinone alone, 0.125 mg/L) of 14% and an inhibition at 0.25 µg/mL ([1]; Plasmodium falciparum, naphthoquinone alone, 0.25 mg/L) of 17%. The inhibition at 0.5 µg/mL ([1]; Plasmodium falciparum, naphthoquinone alone, 0.50 mg/L) was 31%, the inhibition at 1 µg/mL ([1]; Plasmodium falciparum, naphthoquinone alone, 1.0 mg/L) was 55% and the inhibition at 2 µg/mL ([1]; Plasmodium falciparum, naphthoquinone alone, 2.0 mg/L) was 75%.
With `CC(C)(C)C1CCC(C2=C(O)C(=O)c3ccccc3C2=O)CC1` (stereo not drawn) [2-(4-t-butylcyclohexyl)-3-hydroxy-1,4-naphthoquinone] the inhibition at 15.6 pg/mL ([1]; Plasmodium falciparum, naphthoquinone alone, 0.0000156 mg/L) was 0.5%, the inhibition at 32.5 pg/mL ([1]; Plasmodium falciparum, naphthoquinone alone, 0.0000325 mg/L) was 2% and the “% inhibition” value ([1]; naphthoquinone alone, 0.00003125 mg/L) was 5%. It also gave an LD50 [3] of over 1000 mg/kg.
`CCCCCCCCCCCCCC1=C(O)C(=O)c2ccccc2C1=O` [(CH2)12 Me] showed an inhibition at 0.0078 µg/mL ([1]; Plasmodium falciparum, naphthoquinone alone, 0.0078 mg/L) of 4% and an inhibition at 0.0156 µg/mL ([1]; Plasmodium falciparum, naphthoquinone alone, 0.0156 mg/L) of 10%.
`CC(C)(C)C1CCC(C2=C(Cl)C(=O)c3ccccc3C2=O)CC1` (stereo not drawn) [2-(4-t-butylcyclohexyl)-3-chloro-1,4-naphthoquinone] [listing 2 of 2 here] gave an ED50 for naphthoquinone ([1]; fixed clopidol 0.000 mg/L (alone)) of 0.851 µg/mL, an ED50 for naphthoquinone ([1]; fixed clopidol 0.00625 mg/L) of 0.699 µg/mL and an ED50 for naphthoquinone ([1]; fixed clopidol 0.0125 mg/L) of 0.401 µg/mL. It also gave an ED50 for naphthoquinone ([1]; fixed clopidol 0.0250 mg/L) of 0.478 µg/mL, an ED50 for naphthoquinone ([1]; fixed clopidol 0.0500 mg/L) of 0.447 µg/mL and an ED50 for naphthoquinone ([1]; fixed clopidol 0.100 mg/L) of 0.287 µg/mL. The ED50 for naphthoquinone ([1]; fixed clopidol 0.200 mg/L) was 0.198 µg/mL, the ED50 for naphthoquinone ([1]; fixed clopidol 0.400 mg/L) was 0.155 µg/mL and the ED50 for naphthoquinone ([1]; fixed clopidol 0.800 mg/L) was 0.0801 µg/mL. It also gave an ED50 for naphthoquinone ([1]; fixed clopidol 1.60 mg/L) of 0.0303 µg/mL and an ED50 for naphthoquinone ([1]; fixed clopidol 3.20 mg/L) of 0.0075 µg/mL.
